Molecules are shown by their SMILES.

A short description of the data set: gradient 5% acetonitrile 3 min, to 50% in 2 min, to 85% in 15 min, held 3 min, 100 µL/min. As to conditions: column: Zorbax Extend-C18 2.1 x 50 mm; eluents: water / acetonitrile, 0.1% formic acid. The method in brief:
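Retention time was recorded from adduct peaks, which were picked computationally and each inspected manually. Pure standards ran in mixtures of ~100 molecules on HPLC coupled to a quadrupole time-of-flight mass spectrometer, in positive and negative ionization mode, through a Zorbax Extend-C18 column (2.1 × 50 mm, 1.8 μm) at 100 μL/min. Eluents were water and acetonitrile, each with 0.1% formic acid.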
As to `CCN1CCN(c2c(S(=O)(=O)c3ccc(Cl)cc3)cnc3cc4c(cc23)OCCO4)CC1`, the RP-LC retention time is 660 s.

`CNC(=O)c1cc(-c2ccc(F)cc2)nc2ccccc12` displayed an RP-LC retention time of 819 s.

In turn, `Cc1ccc(C)n1-c1nnc(N2CCCC(C(=O)NCCc3c[nH]c4ccccc34)C2)s1` (stereo not drawn) showed an RP-LC retention time of 950 s.

`Cc1ccc(-c2cc3c4nnc(SCC(=O)Nc5ccccc5F)n4ccn3n2)cc1C` displayed an RP-LC retention time of 985 s.

`Cc1cc(C)cc(-c2nc(-c3ccc4c(c3)oc(=O)n4C)no2)c1` displayed an RP-LC retention time of 1060 s.

In the case of `Cc1cccc(-c2noc(Cn3c(=O)n(-c4ccccc4)c(=O)c4sccc43)n2)c1`, the RP-LC retention time is 1000 s.

`CCN1CCn2cc(S(=O)(=O)Nc3ccc(F)c(F)c3)cc2C1=O` had an RP-LC retention time of 727 s.

`CCOC(=O)c1[nH]c(C)c(C(=O)N2CCC(CC(=O)NC3CCCCC3)CC2)c1C` registered an RP-LC retention time of 719 s.

`COc1cc(S(N)(=O)=O)c(OC)cc1N`: the RP-LC retention time was determined as 616 s.

The compound `Fc1cccc(CN2CC[C@@H]3CN(Cc4ccccc4)[C@@H]3C2)c1` came in with an RP-LC retention time of 624 s.

On to `COCCN1CC(CO)C2(CCN(Cc3cccc(Cl)c3)CC2)C1` (stereo not drawn), for which the RP-LC retention time was determined as 531 s.

In turn, `Cc1cc(C(=O)N2C[C@@H](C)[C@H](c3nc(-c4ccncc4)no3)C2)n[nH]1` showed an RP-LC retention time of 619 s.

In the case of `CCCN1C(=O)COc2ccc(-c3csc(NC(=O)c4ccccc4C)n3)cc21`, the RP-LC retention time worked out at 1060 s.

The compound `COc1ccc2cc(C(=O)Nc3ccc(F)cc3)[nH]c2c1` displayed an RP-LC retention time of 910 s.

For the compound `COc1ccc(CCS(=O)(=O)NCC2CCN(C(=O)c3cccn(C)c3=O)CC2)cc1`, the RP-LC retention time amounted to 638 s.

`O=C(Cc1nnc2cc(-c3nc(C4CC4)no3)ccn12)NCc1ccc(Cl)cc1` had an RP-LC retention time of 798 s.

Compound `COc1ccccc1NC(=O)C1CCN(c2cc(N3CCCCC3)ncn2)CC1` had an RP-LC retention time of 700 s.

The compound `CCCN(C)C(=O)c1c(C)oc2c1CN(C(=O)COC)CC2` gave an RP-LC retention time of 613 s.

As to `CCOc1ccc(C(c2c(O)cc(C)n(CCOC)c2=O)N2CCN(c3ccccn3)CC2)cc1` (stereo not drawn), the RP-LC retention time came to 728 s.

With `COCC(=O)N1CCC(Oc2nccnc2N(C)C)C1` (stereo not drawn), the RP-LC retention time was 598 s.

`Cc1noc([C@@H]2CN(C(=O)c3ccc(Br)o3)C[C@H]2CO)n1` gave an RP-LC retention time of 657 s.

Regarding `CCN1CCN(CCCNC(=O)C(C)n2c(=O)c(C(F)(F)F)nc3cc(C)c(C)cc32)CC1` (stereo not drawn), the RP-LC retention time came to 649 s.

On to `CN1C[C@@H](NS(=O)(=O)N(C)C)C[C@@H]2c3cccc4c3c(cn4C)C[C@H]21`, for which the RP-LC retention time worked out at 698 s.

As for `COC(=O)c1ccccc1Nc1c(-c2ccc(OC)c(OC)c2)nc2cnccn12`, the RP-LC retention time amounted to 732 s.

As to `CN1C(=O)c2cc(C(=O)NCCCN3CCc4ccccc4C3)nn2CC1(C)C(=O)NC1CCCC1` (stereo not drawn), the RP-LC retention time is 623 s.

In turn, `CCCCCN1CC(=O)N(c2ccc(OC)cc2)[C@@H]2CS(=O)(=O)C[C@@H]21` had an RP-LC retention time of 708 s.

`O=C(O)c1cccc(-c2noc(-c3ccccc3F)n2)c1` gave an RP-LC retention time of 964 s.

Take `CCOC(=O)c1cc(S(=O)(=O)N2CCCC2C(=O)Nc2nc3ccc(C)cc3s2)cn1C` (stereo not drawn): the RP-LC retention time is 1040 s.

For `COc1ccc(NC(=O)Cn2nc3c(N4CCSCC4)nccn3c2=O)cc1OC`, the RP-LC retention time turned out to be 720 s.

In turn, `Cc1ccc(C(N)=Nc2ccccc2)cc1` yielded an RP-LC retention time of 650 s.

The compound `CC(C)COc1cc(=O)n2c(c1C(=O)NCC1CC1)CCCCC2` yielded an RP-LC retention time of 708 s.

As for `CCCCC(=O)N1CCCN(C2=NS(=O)(=O)C(c3ccc(C)c(C)c3)=C2C)CC1`, the RP-LC retention time worked out at 886 s.

`COc1cccc(-c2ccc(NC(=O)C3=C(C(=O)O)CCC3)c(F)c2)c1` had an RP-LC retention time of 1080 s.

The values above are taken from the METLIN SMRT retention time set (Domingo-Almenara et al. 2019).
